# What was measured:
# Assay in all cases: Minimum inhibitory concentration (MIC), Heart Infusion agar
# Type in all cases: cell-based
# [1] = system: Prot. vulgaris GN-76; details: Proteus vulgaris, GN76; Prot. vulgaris GN-76; 10^6 cells/ml; 20 hours, 37° C.; read-out: minimum inhibitory concentration (MIC)
# Protocol: (§1) Antibacterial activities of the representative compounds (Ib) of the 7α-methoxycephalosporins according to this invention are shown in Table 1. [drawing 20]
# (§2) The figures given in Table 1 represent the minimum inhibitory concentration (MIC in mcg/ml) of each compound, which was determined according to the method described in "Chemotherapy (Society of Chemotherapy, Japan), Vol. 16, 98-99 (1968)": A culture obtained by cultivating the test bacterium in a Heart Infusion broth (Eiken Kagaku Co.) was inoculated into a Heart Infusion agar medium (Eiken Kagaku Co.). After 20 hours of the incubation at 37° C., the growth of the bacterium was inspected to determine the minimum inhibitory concentration (MIC in mcg/ml). The inoculation rate of the bacterium was 10^4 cells/plate (10^6 cells/ml).
# (§3) (1) Minimum inhibitory concentration (MIC in mcg/ml).
# [2] = system: Klebsiella spp. Y-72; details: SPP.Y72; Klebsiella spp. Y-72; 10^6 cells/ml; 20 hours, 37° C.; read-out: minimum inhibitory concentration (MIC)
# Protocol: as §1, §2, §3
# [3] = system: E. coli NIHJ; details: Escherichia coli; E. coli NIHJ; 10^6 cells/ml; 20 hours, 37° C.; read-out: minimum inhibitory concentration (MIC)
# Protocol: as §1, §2, §3
# [4] = system: S. aureus F-19 (Penicillinase-producing bacterium); details: Staphylococcus aureus; S. aureus F-19; 10^6 cells/ml; 20 hours, 37° C.; read-out: minimum inhibitory concentration (MIC)
# Protocol: as §1, §2, §3
# [5] = system: K. pneumoniae Y-50; details: Klebsiella pneumoniae, Y50; K. pneumoniae Y-50; 10^6 cells/ml; 20 hours, 37° C.; read-out: minimum inhibitory concentration (MIC)
# Protocol: as §1, §2, §3
# [6] = system: Ps. aeruginosa IFO-3445; details: Pseudomonas aeruginosa, IFO3445; Ps. aeruginosa IFO-3445; 10^6 cells/ml; 20 hours, 37° C.; read-out: minimum inhibitory concentration (MIC)
# Protocol: as §1, §2, §3
# [7] = system: Citrobacter N-7; details: N7; Citrobacter N-7; 10^6 cells/ml; 20 hours, 37° C.; read-out: minimum inhibitory concentration (MIC)
# Protocol: as §1, §2, §3
# [8] = system: Ent. cloacae IID977; details: Enterobacter cloacae; Ent. cloacae IID977; 10^6 cells/ml; 20 hours, 37° C.; read-out: minimum inhibitory concentration (MIC)
# Protocol: as §1, §2, §3
# [9] = system: Acinetobacter caloaceticus A-6; details: A6; Acinetobacter caloaceticus A-6; 10^6 cells/ml; 20 hours, 37° C.; read-out: minimum inhibitory concentration (MIC)
# Protocol: as §1, §2, §3
# [10] = system: Ser. marcescens W-8; details: Serratia marcescens, W8; Ser. marcescens W-8; 10^6 cells/ml; 20 hours, 37° C.; read-out: minimum inhibitory concentration (MIC)
# Protocol: as §1, §2, §3
# [11] = system: Ser. marcescens IID620; details: Serratia marcescens; Ser. marcescens IID620; 10^6 cells/ml; 20 hours, 37° C.; read-out: minimum inhibitory concentration (MIC)
# Protocol: as §1, §2, §3
# [12] = system: Ps. aeruginosa S-68; details: Pseudomonas aeruginosa, S68; Ps. aeruginosa S-68; 10^6 cells/ml; 20 hours, 37° C.; read-out: minimum inhibitory concentration (MIC)
# Protocol: as §1, §2, §3
# [13] = system: Ser. marcescens W-35; details: Serratia marcescens, W35, 20 h, Ser. marcescens W-35; 10^6 cells/ml; 20 hours, 37° C. (Table 1); read-out: minimum inhibitory concentration (MIC)
# Protocol: as §1
# as §2, with “The inoculation rate of the bacterium was 10^4 cells/plate (10^6 cells/ml).” left out
# as §3
# [14] = system: C. freundii GN-346 (Cephalosporinase-producing bacterium); details: Citrobacter freundii, GN346; C. freundii GN-346; 10^6 cells/ml; 20 hours, 37° C.; read-out: minimum inhibitory concentration (MIC)
# Protocol: as §1, §2, §3
SMILES,MIC [1],MIC [2],MIC [3],MIC [4],MIC [5],MIC [6],MIC [7],MIC [8],MIC [9],MIC [10],MIC [11],MIC [12],MIC [13],MIC [14]
CCN1CCN(C(=O)NC(C(=O)N[C@]2(OC)C(=O)N3C(C(=O)O)=C(CSc4nnnn4CC(N)=O)CS[C@@H]32)c2cccs2)C(=O)C1=O (stereo partly drawn),0.78 µg/mL,1.56 µg/mL,≤ 0.1 µg/mL,3.13 µg/mL,0.39 µg/mL,12.5 µg/mL,3.13 µg/mL,12.5 µg/mL,6.25 µg/mL,25 µg/mL,0.2 µg/mL,12.5 µg/mL,12.5 µg/mL,
CCN1CCN(C(=O)NC(C(=O)N[C@]2(OC)C(=O)N3C(C(=O)O)=C(CSc4nnnn4CCN(C)C)CS[C@@H]32)c2cccs2)C(=O)C1=O (stereo partly drawn),1.56 µg/mL,12.5 µg/mL,≤ 0.1 µg/mL,6.25 µg/mL,0.78 µg/mL,50 µg/mL,6.25 µg/mL,25 µg/mL,12.5 µg/mL,50 µg/mL,0.39 µg/mL,25 µg/mL,50 µg/mL,25 µg/mL
CCN1CCN(C(=O)NC(C(=O)N[C@]2(OC)C(=O)N3C(C(=O)O)=C(CSc4nnnn4CCN)CS[C@@H]32)c2cccs2)C(=O)C1=O (stereo partly drawn),0.78 µg/mL,3.13 µg/mL,≤ 0.1 µg/mL,6.25 µg/mL,0.78 µg/mL,12.5 µg/mL,3.13 µg/mL,50 µg/mL,12.5 µg/mL,50 µg/mL,0.2 µg/mL,12.5 µg/mL,6.25 µg/mL,25 µg/mL
CCN1CCN(C(=O)NC(C(=O)N[C@]2(OC)C(=O)N3C(C(=O)O)=C(CSc4nnnn4CC(C)=O)CS[C@@H]32)c2cccs2)C(=O)C1=O (stereo partly drawn),0.78 µg/mL,6.25 µg/mL,≤ 0.1 µg/mL,6.25 µg/mL,0.39 µg/mL,25 µg/mL,6.25 µg/mL,50 µg/mL,25 µg/mL,50 µg/mL,0.2 µg/mL,25 µg/mL,25 µg/mL,25 µg/mL

# Further compounds by falling MIC [1], results first:
MIC [1],MIC [2],MIC [3],MIC [4],MIC [5],MIC [6],MIC [7],MIC [8],MIC [9],MIC [10],MIC [11],MIC [12],MIC [13],MIC [14],SMILES
3.13 µg/mL,,≤ 0.1 µg/mL,6.25 µg/mL,0.78 µg/mL,50 µg/mL,3.13 µg/mL,25 µg/mL,25 µg/mL,50 µg/mL,0.2 µg/mL,,,25 µg/mL,CCN1CCN(C(=O)NC(C(=O)N[C@]2(OC)C(=O)N3C(C(=O)O)=C(CSc4nnn(CCN(C)C)n4)CS[C@@H]32)c2cccs2)C(=O)C1=O (stereo partly drawn)
0.78 µg/mL,1.56 µg/mL,≤ 0.1 µg/mL,6.25 µg/mL,0.39 µg/mL,25 µg/mL,12.5 µg/mL,100 µg/mL,12.5 µg/mL,25 µg/mL,0.78 µg/mL,25 µg/mL,12.5 µg/mL,100 µg/mL,CCN1CCN(C(=O)NC(C(=O)N[C@]2(OC)C(=O)N3C(C(=O)O)=C(CSc4nncs4)CS[C@@H]32)c2cccs2)C(=O)C1=O (stereo partly drawn)
0.78 µg/mL,6.25 µg/mL,≤ 0.1 µg/mL,3.13 µg/mL,0.39 µg/mL,25 µg/mL,3.13 µg/mL,25 µg/mL,12.5 µg/mL,25 µg/mL,0.2 µg/mL,12.5 µg/mL,12.5 µg/mL,12.5 µg/mL,C=Cn1nnnc1SCC1=C(C(=O)O)N2C(=O)[C@](NC(=O)C(NC(=O)N3CCN(CC)C(=O)C3=O)c3cccs3)(OC)[C@H]2SC1 (stereo partly drawn)
0.78 µg/mL,6.25 µg/mL,≤ 0.1 µg/mL,3.13 µg/mL,0.78 µg/mL,25 µg/mL,6.25 µg/mL,25 µg/mL,12.5 µg/mL,50 µg/mL,0.2 µg/mL,12.5 µg/mL,25 µg/mL,50 µg/mL,CCN1CCN(C(=O)NC(C(=O)N[C@]2(OC)C(=O)N3C(C(=O)O)=C(CSc4nnnn4CC(C)=NO)CS[C@@H]32)c2cccs2)C(=O)C1=O (stereo partly drawn)

# From patent US4321265A, “7α-Methoxycephalosporins” (Toyama Chemical Co., Ltd., priority 1977, dated 1982)
